The results in this text go back to ChEMBL document CHEMBL5291721, “A preclinical secondary pharmacology resource illuminates target-adverse drug reaction associations of marketed drugs” (Nat Commun, 2023).

One test addresses T1, Substance-K receptor (Homo sapiens, UniProt P21452).
T1 sequence (P21452 whole entry): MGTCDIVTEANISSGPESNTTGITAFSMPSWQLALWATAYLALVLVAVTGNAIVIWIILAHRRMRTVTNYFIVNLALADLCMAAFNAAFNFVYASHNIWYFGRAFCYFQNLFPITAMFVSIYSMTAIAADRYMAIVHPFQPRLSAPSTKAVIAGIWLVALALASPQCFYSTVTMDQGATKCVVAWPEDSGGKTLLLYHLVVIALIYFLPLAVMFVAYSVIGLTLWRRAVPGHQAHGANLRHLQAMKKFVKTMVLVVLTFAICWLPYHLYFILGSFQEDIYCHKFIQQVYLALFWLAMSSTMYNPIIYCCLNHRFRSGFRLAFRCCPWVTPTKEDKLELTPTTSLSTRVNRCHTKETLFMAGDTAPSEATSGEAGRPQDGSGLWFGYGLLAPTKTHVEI

Test [1] addresses T2, Muscarinic acetylcholine receptor M5 (Homo sapiens, UniProt P08912).
T2 sequence (P08912 whole entry): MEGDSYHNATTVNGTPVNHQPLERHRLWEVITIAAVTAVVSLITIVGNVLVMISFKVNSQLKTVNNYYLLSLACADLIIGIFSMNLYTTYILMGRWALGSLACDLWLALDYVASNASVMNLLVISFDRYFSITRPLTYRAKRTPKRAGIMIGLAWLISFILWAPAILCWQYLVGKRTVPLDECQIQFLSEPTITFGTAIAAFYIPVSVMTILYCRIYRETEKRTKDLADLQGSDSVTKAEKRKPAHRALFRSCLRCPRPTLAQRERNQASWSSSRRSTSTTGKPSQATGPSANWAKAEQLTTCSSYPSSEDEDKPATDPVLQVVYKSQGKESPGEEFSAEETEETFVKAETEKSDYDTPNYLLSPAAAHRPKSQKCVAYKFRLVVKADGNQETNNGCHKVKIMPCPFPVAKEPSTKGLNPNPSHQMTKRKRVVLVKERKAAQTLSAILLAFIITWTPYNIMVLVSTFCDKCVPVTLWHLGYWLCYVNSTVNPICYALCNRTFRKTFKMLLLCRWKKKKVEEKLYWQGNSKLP

Test [2] concerns the target Hydroxycarboxylic acid receptor 2 (Homo sapiens, UniProt Q8TDS4).
Test [3] deals with T3, Type-2 angiotensin II receptor (Homo sapiens, UniProt P50052).
T3 sequence (P50052 whole entry): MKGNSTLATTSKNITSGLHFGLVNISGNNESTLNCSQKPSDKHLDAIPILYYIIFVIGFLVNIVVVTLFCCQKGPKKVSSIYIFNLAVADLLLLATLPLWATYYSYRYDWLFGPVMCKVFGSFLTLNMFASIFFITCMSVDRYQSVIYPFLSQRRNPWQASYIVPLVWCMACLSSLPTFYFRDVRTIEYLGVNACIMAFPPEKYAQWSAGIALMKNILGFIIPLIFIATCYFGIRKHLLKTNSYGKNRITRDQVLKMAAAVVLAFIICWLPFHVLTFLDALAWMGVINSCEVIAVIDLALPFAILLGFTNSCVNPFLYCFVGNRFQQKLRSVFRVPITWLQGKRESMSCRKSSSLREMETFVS
It counts as functional.

In test [4] the target is T4, Muscarinic acetylcholine receptor M2 (Homo sapiens, UniProt P08172).
T4 sequence (P08172 whole entry): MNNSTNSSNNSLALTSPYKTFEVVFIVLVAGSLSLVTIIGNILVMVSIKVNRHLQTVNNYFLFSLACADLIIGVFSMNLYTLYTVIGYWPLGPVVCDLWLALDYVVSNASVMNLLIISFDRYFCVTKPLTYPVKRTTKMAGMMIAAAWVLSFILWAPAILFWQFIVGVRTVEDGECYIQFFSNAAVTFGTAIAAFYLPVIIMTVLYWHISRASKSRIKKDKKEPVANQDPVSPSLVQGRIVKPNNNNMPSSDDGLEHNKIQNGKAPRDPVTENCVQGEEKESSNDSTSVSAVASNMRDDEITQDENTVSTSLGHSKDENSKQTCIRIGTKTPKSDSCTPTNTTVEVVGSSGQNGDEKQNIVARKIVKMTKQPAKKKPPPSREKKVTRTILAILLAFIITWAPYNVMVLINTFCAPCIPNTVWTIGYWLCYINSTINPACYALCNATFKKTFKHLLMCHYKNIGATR

The target of test [5] is Voltage-dependent L-type calcium channel subunit alpha-1C (Homo sapiens, UniProt Q13936). Type of test: functional, cell-based.
Test [6] has as its target Beta-1 adrenergic receptor (Homo sapiens, UniProt P08588). It counts as functional, cell-based.
Test [7] deals with T5, Histamine H1 receptor (Homo sapiens, UniProt P35367). It counts as functional, cell-based.
The target in test [8] is T5, Histamine H1 receptor. Type of test: functional, cell-based. The source holds these as a separate data set.
Note: assay procedure not described here.

Sequence of Hydroxycarboxylic acid receptor 2 (Q8TDS4 whole entry): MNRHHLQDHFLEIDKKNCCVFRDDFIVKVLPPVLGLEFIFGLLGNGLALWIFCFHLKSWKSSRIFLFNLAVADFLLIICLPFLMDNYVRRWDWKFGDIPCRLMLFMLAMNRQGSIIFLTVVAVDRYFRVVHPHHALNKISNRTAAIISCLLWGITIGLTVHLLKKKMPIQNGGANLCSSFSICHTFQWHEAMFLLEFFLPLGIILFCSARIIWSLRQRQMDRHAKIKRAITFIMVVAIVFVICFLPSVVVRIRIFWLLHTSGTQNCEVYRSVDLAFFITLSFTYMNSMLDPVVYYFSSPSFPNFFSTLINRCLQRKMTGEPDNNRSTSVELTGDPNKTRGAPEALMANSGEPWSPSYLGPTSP
T5 sequence (P35367 whole entry): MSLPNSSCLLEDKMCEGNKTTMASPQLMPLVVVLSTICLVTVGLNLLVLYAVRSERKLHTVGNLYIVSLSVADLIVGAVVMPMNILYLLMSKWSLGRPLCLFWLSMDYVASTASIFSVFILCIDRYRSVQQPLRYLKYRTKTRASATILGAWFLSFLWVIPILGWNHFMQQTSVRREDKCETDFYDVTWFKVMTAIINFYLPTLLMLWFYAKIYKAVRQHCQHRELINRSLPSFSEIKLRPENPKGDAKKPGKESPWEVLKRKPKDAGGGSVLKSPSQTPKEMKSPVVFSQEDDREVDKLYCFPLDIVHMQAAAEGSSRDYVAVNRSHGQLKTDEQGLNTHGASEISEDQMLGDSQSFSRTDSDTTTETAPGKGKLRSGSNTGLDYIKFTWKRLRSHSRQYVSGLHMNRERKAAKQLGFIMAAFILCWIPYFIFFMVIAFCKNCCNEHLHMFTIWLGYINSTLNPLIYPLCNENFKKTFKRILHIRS
Sequence of Beta-1 adrenergic receptor (P08588 whole entry): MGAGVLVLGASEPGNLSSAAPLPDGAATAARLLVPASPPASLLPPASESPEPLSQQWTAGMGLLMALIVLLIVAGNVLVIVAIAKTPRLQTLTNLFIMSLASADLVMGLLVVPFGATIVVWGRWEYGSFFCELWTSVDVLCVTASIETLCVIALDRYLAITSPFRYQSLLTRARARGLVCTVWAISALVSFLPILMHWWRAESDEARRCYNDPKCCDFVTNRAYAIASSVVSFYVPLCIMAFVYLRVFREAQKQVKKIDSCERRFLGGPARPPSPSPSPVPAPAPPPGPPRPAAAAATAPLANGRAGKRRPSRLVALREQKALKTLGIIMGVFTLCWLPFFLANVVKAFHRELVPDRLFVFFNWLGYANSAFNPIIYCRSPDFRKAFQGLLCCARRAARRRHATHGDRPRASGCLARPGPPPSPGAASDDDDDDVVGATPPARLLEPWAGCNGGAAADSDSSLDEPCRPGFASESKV
Sequence of Voltage-dependent L-type calcium channel subunit alpha-1C (Q13936 whole entry): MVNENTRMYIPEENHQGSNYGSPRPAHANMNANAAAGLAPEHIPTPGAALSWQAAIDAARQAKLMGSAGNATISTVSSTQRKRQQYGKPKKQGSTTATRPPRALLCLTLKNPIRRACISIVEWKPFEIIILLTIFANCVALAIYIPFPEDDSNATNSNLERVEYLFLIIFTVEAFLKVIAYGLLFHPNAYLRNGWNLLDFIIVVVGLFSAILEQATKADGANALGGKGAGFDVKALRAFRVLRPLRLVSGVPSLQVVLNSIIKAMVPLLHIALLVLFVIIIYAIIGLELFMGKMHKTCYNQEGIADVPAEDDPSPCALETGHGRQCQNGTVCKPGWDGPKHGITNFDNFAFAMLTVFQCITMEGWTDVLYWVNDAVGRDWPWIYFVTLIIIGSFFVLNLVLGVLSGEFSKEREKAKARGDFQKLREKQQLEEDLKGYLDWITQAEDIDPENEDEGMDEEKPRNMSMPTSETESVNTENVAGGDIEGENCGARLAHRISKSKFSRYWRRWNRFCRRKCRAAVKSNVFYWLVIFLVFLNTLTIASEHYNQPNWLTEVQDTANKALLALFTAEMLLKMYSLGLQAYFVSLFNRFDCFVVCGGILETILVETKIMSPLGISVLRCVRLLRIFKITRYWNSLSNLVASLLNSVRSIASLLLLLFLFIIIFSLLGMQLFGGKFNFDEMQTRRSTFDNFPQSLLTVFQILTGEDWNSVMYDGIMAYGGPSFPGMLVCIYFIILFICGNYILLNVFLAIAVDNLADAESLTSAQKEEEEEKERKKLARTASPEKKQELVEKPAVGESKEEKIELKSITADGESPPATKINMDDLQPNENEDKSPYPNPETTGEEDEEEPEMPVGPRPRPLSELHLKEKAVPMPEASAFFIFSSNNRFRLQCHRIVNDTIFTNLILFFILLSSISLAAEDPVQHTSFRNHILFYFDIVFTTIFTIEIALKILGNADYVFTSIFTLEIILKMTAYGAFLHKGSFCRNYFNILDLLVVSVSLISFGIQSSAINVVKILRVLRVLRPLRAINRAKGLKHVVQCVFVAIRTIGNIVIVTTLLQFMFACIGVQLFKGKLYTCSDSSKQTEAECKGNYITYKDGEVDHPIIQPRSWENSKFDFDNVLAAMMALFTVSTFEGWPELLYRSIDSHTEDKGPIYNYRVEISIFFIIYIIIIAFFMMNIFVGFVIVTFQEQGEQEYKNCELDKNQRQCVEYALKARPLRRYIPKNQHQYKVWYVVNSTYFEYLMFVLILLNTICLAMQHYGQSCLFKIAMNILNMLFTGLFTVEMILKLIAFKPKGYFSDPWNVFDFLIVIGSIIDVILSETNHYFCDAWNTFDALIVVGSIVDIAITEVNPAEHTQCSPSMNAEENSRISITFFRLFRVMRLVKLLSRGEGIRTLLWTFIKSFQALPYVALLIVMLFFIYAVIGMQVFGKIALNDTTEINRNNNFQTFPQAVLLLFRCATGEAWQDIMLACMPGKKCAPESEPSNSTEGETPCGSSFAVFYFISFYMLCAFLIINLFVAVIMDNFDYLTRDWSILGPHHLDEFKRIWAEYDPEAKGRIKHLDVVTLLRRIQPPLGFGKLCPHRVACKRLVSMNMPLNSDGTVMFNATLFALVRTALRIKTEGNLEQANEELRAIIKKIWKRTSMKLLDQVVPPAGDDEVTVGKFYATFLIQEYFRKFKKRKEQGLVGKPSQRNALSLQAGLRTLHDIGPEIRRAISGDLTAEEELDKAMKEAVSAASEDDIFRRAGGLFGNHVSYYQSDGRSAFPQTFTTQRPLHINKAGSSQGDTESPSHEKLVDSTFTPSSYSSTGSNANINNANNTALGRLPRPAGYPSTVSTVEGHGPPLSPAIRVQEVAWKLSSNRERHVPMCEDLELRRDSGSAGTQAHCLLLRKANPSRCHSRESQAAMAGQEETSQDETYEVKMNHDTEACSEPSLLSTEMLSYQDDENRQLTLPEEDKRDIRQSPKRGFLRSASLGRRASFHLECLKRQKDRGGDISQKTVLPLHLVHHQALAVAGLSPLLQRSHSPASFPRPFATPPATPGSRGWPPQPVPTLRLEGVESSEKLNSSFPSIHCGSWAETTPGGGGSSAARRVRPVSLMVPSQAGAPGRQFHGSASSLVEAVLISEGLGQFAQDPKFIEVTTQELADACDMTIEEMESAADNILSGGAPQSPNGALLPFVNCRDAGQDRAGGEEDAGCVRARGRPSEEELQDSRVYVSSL

By AC50 is commonly meant the midpoint of the concentration-response curve, whichever way the signal moves. On to `O=C(Nc1nc(-c2cc(Cl)cs2)c(N2CCN(C3CCCCC3)CC2)s1)c1cnc(N2CCC(C(=O)O)CC2)c(Cl)c1` [AVATROMBOPAG], for which the AC50 (on Substance-K receptor; in test [1]) was more than 10 µM throughout.
Turning to `C[C@H]1C[C@H]2[C@@H]3CCC4=CC(=O)C=C[C@]4(C)[C@@]3(Cl)[C@@H](O)C[C@]2(C)[C@@]1(O)C(=O)CO` [BECLOMETHASONE], the AC50 in test [2] was more than 10 µM.
`NS(=O)(=O)c1cc(C2(O)NC(=O)c3ccccc32)ccc1Cl` (stereo not drawn) [CHLORTHALIDONE] yielded an AC50 in test [3] of more than 100 µM.
As to `OC(CCCN1CCCCC1)(c1ccccc1)c1ccccc1` [DIPHENIDOL], the AC50 in test [4] stood at 0.38 µM.
On to `O=C(CCCN1CC=C(n2c(=O)[nH]c3ccccc32)CC1)c1ccc(F)cc1` [DROPERIDOL], for which, in [5], the AC50 is more than 50 µM.
On to `CCn1cc(C(=O)O)c(=O)c2cc(F)c(N3CCNCC3)nc21` [ENOXACIN], for which the AC50 (at Substance-K receptor; in test [1]) was more than 10 µM each time.
As to `CNC(=O)Oc1ccc2c(c1)[C@]1(C)CCN(C)[C@@H]1N2C` [PHYSOSTIGMINE], in test [6], the AC50 was more than 30 µM.
As for `NS(=O)(=O)c1cc(C(=O)O)cc(N2CCCC2)c1Oc1ccccc1` [PIRETANIDE], the AC50 in [3] is more than 100 µM.
In test [2], `COCCCOc1ccnc(C[S+]([O-])c2nc3ccccc3[nH]2)c1C` (stereo not drawn) [RABEPRAZOLE] displayed an AC50 of more than 10 µM.
As for `O=C(CCCN1CCC2(CC1)C(=O)NCN2c1ccccc1)c1ccc(F)cc1` [SPIPERONE], the AC50 was 7.1 µM on Histamine H1 receptor [7] and 1.2 µM at Histamine H1 receptor [8].
